Test results published in article PMC12632266, “A dual L-glucose/L-galactose catabolic pathway in Luteolibacter species strain LG18” (Journal of Bacteriology, 2025).
Each block holds one compound with its values, some of them ahead of it.

Key:
His6-LguH = test system: T1, His6-LguH; experiment: coupled LguE/GAPDH, NADH formation at […] nm; assay type: biochemical, Luteolibacter sp. LG18; settings: 1 mM MgCl2, 100 mM potassium phosphate pH 7.0, 25°C
T1 construct: full-length ORF, N-terminal His6 (pET28a), E. coli BL21 Star (DE3)

His6-LguD (L-GnDH) = test system: T2, His6-LguD (L-GnDH); experiment: NAD+ reduction at […] nm; assay type: biochemical, Luteolibacter sp. LG18; settings: 10 mM Tris-HCl pH 7.5, 25°C
T2 construct: full-length ORF, N-terminal His6 (pET28a), E. coli BL21 Star (DE3); native N-terminus MKTLVLREPG

His6-LguA (L-GDH) = biological target: T3, His6-LguA (L-GDH) (Luteolibacter sp. LG18, UniProt Z9K5S2U0J3); experiment: NADP+ reduction at […] nm; assay type: biochemical; settings: 10 mM Tris-HCl pH 7.5, 25°C
T3 construct: full-length ORF, N-terminal His6 (pET28a), E. coli BL21 Star (DE3); native N-terminus METRKLGNTGLDVSV
T3 sequence (Z9K5S2U0J3 21-349): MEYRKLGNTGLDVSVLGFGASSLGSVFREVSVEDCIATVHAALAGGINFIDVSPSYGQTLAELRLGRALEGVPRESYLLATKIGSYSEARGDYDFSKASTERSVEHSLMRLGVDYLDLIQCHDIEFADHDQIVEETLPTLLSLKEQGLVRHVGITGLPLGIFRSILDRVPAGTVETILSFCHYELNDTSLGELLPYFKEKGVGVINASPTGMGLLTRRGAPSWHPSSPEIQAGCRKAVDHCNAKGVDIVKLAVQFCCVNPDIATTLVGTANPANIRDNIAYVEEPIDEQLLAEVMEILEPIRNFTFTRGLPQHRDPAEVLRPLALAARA

His6-LguE = test system: T4, His6-LguE; experiment: coupled LDH, NADH oxidation (pyruvate production); assay type: biochemical, Luteolibacter sp. LG18; settings: 100 mM potassium phosphate pH 7.0, 25°C
T4 construct: full-length ORF, N-terminal His6 (pET28a), E. coli BL21 Star (DE3)
Text: coupled LDH, NADH oxidation (pyruvate production) on His6-LguE

Compound: Nc1ncnc2c1ncn2[C@@H]1O[C@H](COP(=O)(O)OP(=O)(O)OP(=O)(O)O)[C@@H](O)[C@H]1O [ATP]
Km (His6-LguH; 5 mM KDG, phosphate donor): 55 ± 47 µM

Compound: O=C(O)[C@@H](O)[C@H](O)[C@H](O)[C@@H](O)CO [L-galactonate]
Km (His6-LguD (L-GnDH); 1 mM NAD+): 2960 ± 230 µM

Compound: O=C(O)C(=O)C[C@H](O)[C@H](O)CO [KDG]
Km (His6-LguH; 10 mM PPi): 198 ± 12 µM

Compound: O=C(O)C(=O)C[C@H](O)[C@H](O)COP(=O)(O)O [KDPG]
Km (His6-LguE): 137 ± 10 µM

Continued, values first:

Km (His6-LguD (L-GnDH); 1 mM NAD+): 4300 ± 340 µM
Compound: O=C(O)[C@@H](O)[C@H](O)[C@@H](O)[C@@H](O)CO [L-gluconate]

Km (His6-LguA (L-GDH); 1 mM NADP+): 7700 ± 490 µM
Compound: OC[C@@H]1OC(O)[C@@H](O)[C@H](O)[C@H]1O (stereo partly drawn) [L-glucose]

Km (His6-LguH; 5 mM KDG, phosphate donor): 306 ± 63 µM
Compound: O=P(O)(O)OP(=O)(O)O [PPi]

Km (His6-LguD (L-GnDH); 20 mM L-gluconate): 450 ± 30 µM
Compound: NC(=O)c1ccc[n+]([C@@H]2O[C@H](COP(=O)(O)OP(=O)(O)OC[C@H]3O[C@@H](n4cnc5c(N)ncnc54)[C@H](O)[C@@H]3O)[C@@H](O)[C@H]2O)c1 [NAD^+]

Km (His6-LguA (L-GDH); 1 mM NADP+): 91.7 µM
Compound: OC[C@@H]1OC(O)[C@@H](O)[C@H](O)[C@@H]1O (stereo partly drawn) [L-galactose]

Km (His6-LguA (L-GDH); 100 mM L-glucose): 79.3 µM
Compound: NC(=O)c1ccc[n+]([C@@H]2O[C@H](COP(=O)(O)OP(=O)(O)OC[C@H]3O[C@@H](n4cnc5c(N)ncnc54)[C@H](OP(=O)(O)O)[C@@H]3O)[C@@H](O)[C@H]2O)c1 [NADP^+]
